Assay results as given in patent US11980188B2, “Spiro cyclohexanedione derivates as herbicides” (SYNGENTA PARTICIPATIONS AG, priority 2018, dated 2024).

Tests used:
Experiment in all cases: Glasshouse herbicide test, pre- and post-emergence, percentage damage
Assay type in all cases: in vivo
Lolium perenne (LOLPE) = conditions: 250 g/h, evaluated after 13 days, percentage damage on five point scale; for LOLPE POST: post-emergence; for LOLPE PRE: pre-emergence
Experimental: (§1) Seeds of a variety of test species are sown in standard soil in pots (Lolium perenne (LOLPE), Setaria faberi (SETFA), Alopecurus myosuroides (ALOMY), Echinochloa crus-galli (ECHCG), Avena fatua (AVEFA)). After cultivation for one day (pre-emergence) or after 8 days cultivation (post-emergence) under controlled conditions in a glasshouse (at 24/16° C., day/night; 14 hours light; 65% humidity), the plants are sprayed with an aqueous spray solution derived from the formulation of the technical active ingredient in acetone/water (50:50) solution containing 0.5% Tween 20 (polyoxyethelyene sorbitan monolaurate, CAS RN 9005-64-5). Compounds are applied at […]. The test plants are then grown in a glasshouse under controlled conditions in a glasshouse (at 24/16° C., day/night; 14 hours light; 65% humidity) and watered twice daily. After 13 days for pre and post-emergence, the test is evaluated for the percentage damage caused to the plant. The biological activities are shown in the following table on a five point scale (5=80-100%; 4=60-79%; 3=40-59%; 2=20-39%; 1=0-19%).

[1] = test system: Echinochloa crus-galli (ECHCG); conditions: 250 g/h, evaluated after 13 days, percentage damage on five point scale; for ECHCG POST: post-emergence; for ECHCG PRE: pre-emergence
Experimental: as §1

Setaria faberi (SETFA) = conditions: 250 g/h, evaluated after 13 days, percentage damage on five point scale; for SETFA POST: post-emergence; for SETFA PRE: pre-emergence
Experimental: as §1

Avena fatua (AVEFA) = conditions: 250 g/h, evaluated after 13 days, percentage damage on five point scale; for AVEFA POST: post-emergence; for AVEFA PRE: pre-emergence
Experimental: as §1

[2] = test system: Alopecurus myosuroides (ALOMY); conditions: 250 g/h, evaluated after 13 days, percentage damage on five point scale; for ALOMY POST: post-emergence; for ALOMY PRE: pre-emergence
Experimental: as §1

| SMILES | LOLPE POST (Lolium perenne (LOLPE)) | LOLPE PRE (Lolium perenne (LOLPE)) | ECHCG POST [1] | ECHCG PRE [1] | SETFA POST (Setaria faberi (SETFA)) | SETFA PRE (Setaria faberi (SETFA)) | AVEFA POST (Avena fatua (AVEFA)) | AVEFA PRE (Avena fatua (AVEFA)) | ALOMY POST [2] | ALOMY PRE [2] |
| --- | --- | --- | --- | --- | --- | --- | --- | --- | --- | --- |
| CC(=O)N1CCC2(CC1)CC(=O)C(c1c(C)cc(-c3ccc(F)cc3)cc1C)C(=O)C2 [Compound A12] | 5 (5=80-100%) | 5 (5=80-100%) | 5 (5=80-100%) | 5 (5=80-100%) | 5 (5=80-100%) | 5 (5=80-100%) | 5 (5=80-100%) | 4 (4=60-79%) | 5 (5=80-100%) | 5 (5=80-100%) |
| CC(=O)N1CCC2(CC1)CC(=O)C(c1c(C)cc(-c3ccc(C#N)cn3)cc1C)C(=O)C2 [Compound A14] | 5 (5=80-100%) | 5 (5=80-100%) | – | 5 (5=80-100%) | 5 (5=80-100%) | 5 (5=80-100%) | 5 (5=80-100%) | 5 (5=80-100%) | 5 (5=80-100%) | 5 (5=80-100%) |
| COc1cc(-c2ncc(F)cn2)cc(OC)c1C1C(=O)CC2(CCN(C(C)=O)CC2)CC1=O [Compound A15] | 5 (5=80-100%) | 5 (5=80-100%) | 5 (5=80-100%) | 5 (5=80-100%) | 5 (5=80-100%) | 5 (5=80-100%) | 5 (5=80-100%) | 5 (5=80-100%) | 5 (5=80-100%) | 5 (5=80-100%) |
| COc1cc(-c2ccc(C#N)cn2)cc(OC)c1C1C(=O)CC2(CCN(C(C)=O)CC2)CC1=O [Compound A16] | 4 (4=60-79%) | 3 (3=40-59%) | – | 5 (5=80-100%) | 5 (5=80-100%) | 4 (4=60-79%) | 5 (5=80-100%) | 4 (4=60-79%) | 5 (5=80-100%) | 1 (1=0-19%) |
| COc1cc(-c2ncc(F)cn2)cc(C)c1C1C(=O)CC2(CCN(C(C)=O)CC2)CC1=O [Compound A17] | 5 (5=80-100%) | 5 (5=80-100%) | 5 (5=80-100%) | 5 (5=80-100%) | 5 (5=80-100%) | 5 (5=80-100%) | 5 (5=80-100%) | 5 (5=80-100%) | 5 (5=80-100%) | 5 (5=80-100%) |
| COc1cc(-c2ccc(C#N)cn2)cc(C)c1C1C(=O)CC2(CCN(C(C)=O)CC2)CC1=O [Compound A18] | 5 (5=80-100%) | 5 (5=80-100%) | 5 (5=80-100%) | 5 (5=80-100%) | 5 (5=80-100%) | 5 (5=80-100%) | 5 (5=80-100%) | 5 (5=80-100%) | 5 (5=80-100%) | 4 (4=60-79%) |
| CC(=O)N1CCC2(CC1)CC(=O)C(c1c(C)cc(-n3cc(Cl)cn3)cc1C)C(=O)C2 [Compound A19] | 5 (5=80-100%) | 4 (4=60-79%) | 4 (4=60-79%) | 1 (1=0-19%) | 5 (5=80-100%) | 3 (3=40-59%) | 5 (5=80-100%) | 5 (5=80-100%) | 5 (5=80-100%) | 2 (2=20-39%) |
| COc1cc(-c2ccc(F)cc2)cc(OC)c1C1C(=O)CC2(CCN(C(C)=O)CC2)CC1=O [Compound A20] | 5 (5=80-100%) | 5 (5=80-100%) | 5 (5=80-100%) | 5 (5=80-100%) | 5 (5=80-100%) | 5 (5=80-100%) | 5 (5=80-100%) | 5 (5=80-100%) | 5 (5=80-100%) | 5 (5=80-100%) |
| COc1cc(-c2ccc(F)cc2)cc(C)c1C1C(=O)CC2(CCN(C(C)=O)CC2)CC1=O [Compound A21] | 5 (5=80-100%) | 5 (5=80-100%) | 5 (5=80-100%) | 5 (5=80-100%) | 5 (5=80-100%) | 5 (5=80-100%) | 5 (5=80-100%) | 5 (5=80-100%) | 5 (5=80-100%) | 5 (5=80-100%) |
| CCS(=O)(=O)N1CCC2(CC1)CC(=O)C(c1c(C)cc(-c3ccc(C#N)cn3)cc1C)C(=O)C2 [Compound A22] | 5 (5=80-100%) | 5 (5=80-100%) | – | 5 (5=80-100%) | 5 (5=80-100%) | 5 (5=80-100%) | 5 (5=80-100%) | 5 (5=80-100%) | 5 (5=80-100%) | 5 (5=80-100%) |
| Cc1cc(-c2ccc(C#N)cn2)cc(C)c1C1C(=O)CC2(CCN(C(=O)c3ccccc3)CC2)CC1=O [Compound A23] | 5 (5=80-100%) | 5 (5=80-100%) | 5 (5=80-100%) | 5 (5=80-100%) | 5 (5=80-100%) | 5 (5=80-100%) | 5 (5=80-100%) | 5 (5=80-100%) | 5 (5=80-100%) | 5 (5=80-100%) |
| Cc1cc(-c2ccc(C#N)cn2)cc(C)c1C1C(=O)CC2(CCN(C(=O)c3ccccn3)CC2)CC1=O [Compound A24] | 5 (5=80-100%) | 5 (5=80-100%) | 5 (5=80-100%) | 5 (5=80-100%) | 5 (5=80-100%) | 5 (5=80-100%) | 5 (5=80-100%) | 5 (5=80-100%) | 5 (5=80-100%) | 5 (5=80-100%) |
| COCC(=O)N1CCC2(CC1)CC(=O)C(c1c(C)cc(-c3ccc(C#N)cn3)cc1C)C(=O)C2 [Compound A25] | 5 (5=80-100%) | 5 (5=80-100%) | 5 (5=80-100%) | 5 (5=80-100%) | 5 (5=80-100%) | 5 (5=80-100%) | 5 (5=80-100%) | 5 (5=80-100%) | 5 (5=80-100%) | 5 (5=80-100%) |
| Cc1cc(-c2ccc(C#N)cn2)cc(C)c1C1C(=O)CC2(CCN(C(=O)NC(C)(C)C)CC2)CC1=O [Compound A26] | 5 (5=80-100%) | 5 (5=80-100%) | – | 5 (5=80-100%) | 5 (5=80-100%) | 5 (5=80-100%) | 2 (2=20-39%) | 4 (4=60-79%) | 5 (5=80-100%) | 5 (5=80-100%) |
| Cc1cc(-c2ccc(C#N)cn2)cc(C)c1C1C(=O)CC2(CCN(C(=O)NC(=O)C(C)(C)C)CC2)CC1=O [Compound A27] | 5 (5=80-100%) | 4 (4=60-79%) | – | 5 (5=80-100%) | 5 (5=80-100%) | 5 (5=80-100%) | 1 (1=0-19%) | 2 (2=20-39%) | 5 (5=80-100%) | 4 (4=60-79%) |
| Cc1cc(-c2ccc(C#N)cn2)cc(C)c1C1C(=O)CC2(CCN(C(=O)C3CC3)CC2)CC1=O [Compound A28] | 5 (5=80-100%) | 5 (5=80-100%) | 5 (5=80-100%) | 5 (5=80-100%) | 5 (5=80-100%) | 5 (5=80-100%) | 5 (5=80-100%) | 5 (5=80-100%) | 5 (5=80-100%) | 5 (5=80-100%) |
| Cc1cc(-c2ccc(C#N)cn2)cc(C)c1C1C(=O)CC2(CCN(C(=O)C(F)F)CC2)CC1=O [Compound A29] | 5 (5=80-100%) | 1 (1=0-19%) | 4 (4=60-79%) | 1 (1=0-19%) | 5 (5=80-100%) | 5 (5=80-100%) | 5 (5=80-100%) | 5 (5=80-100%) | 5 (5=80-100%) | – |
| Cc1cc(-c2ccc(C#N)cn2)cc(C)c1C1C(=O)CC2(CCN(C(=O)C(C)(C)C)CC2)CC1=O [Compound A30] | 5 (5=80-100%) | 5 (5=80-100%) | 5 (5=80-100%) | 5 (5=80-100%) | 5 (5=80-100%) | 5 (5=80-100%) | 5 (5=80-100%) | 3 (3=40-59%) | 5 (5=80-100%) | 5 (5=80-100%) |
| Cc1cc(-c2ccc(C#N)cn2)cc(C)c1C1C(=O)CC2(CCN(C(=O)NC(=O)c3ccccn3)CC2)CC1=O [Compound A31] | 5 (5=80-100%) | 1 (1=0-19%) | 5 (5=80-100%) | 3 (3=40-59%) | 5 (5=80-100%) | 1 (1=0-19%) | 5 (5=80-100%) | – | 5 (5=80-100%) | 1 (1=0-19%) |
